Positions of bridges follow the written chain, without caps; N, C: chain ends. Non-standard residues stand in square brackets, D forms with d. Residues, ends and D or L forms follow the SMILES beside them. ξ: configuration not given here. Bip = N[C@@H](Cc1ccc(-c2ccccc2)cc1)C(=O)O; Phe(3-Me) = Cc1cccc(C[C@H](N)C(=O)O)c1; NMeF = CN[C@@H](Cc1ccccc1)C(=O)O; hArg = N=C(N)NCCCC[C@H](N)C(=O)O; 4Pal = N[C@@H](Cc1ccncc1)C(=O)O; Cha = N[C@@H](CC1CCCCC1)C(=O)O; Ala(CN) = N#CC[C@H](N)C(=O)O; Phg = N[C@H](C(=O)O)c1ccccc1; NMeA = CN[C@@H](C)C(=O)O; Orn = NCCC[C@H](N)C(=O)O; ξF = NC(Cc1ccccc1)C(=O)O; Dab = NCC[C@H](N)C(=O)O; Dap = NC[C@H](N)C(=O)O; ξV = CC(C)C(N)C(=O)O; Sar = CNCC(=O)O

For this test, the target named is T1, human PD-1 (Jurkat-PD-1 cells) / PE-labeled human PD-L1-Ig (Homo sapiens, UniProt Q15116).
T1 construct: expressed in transfected cells; host or cells: Jurkat cell line over-expressing human PD-1
T1 sequence (Q15116 25-288): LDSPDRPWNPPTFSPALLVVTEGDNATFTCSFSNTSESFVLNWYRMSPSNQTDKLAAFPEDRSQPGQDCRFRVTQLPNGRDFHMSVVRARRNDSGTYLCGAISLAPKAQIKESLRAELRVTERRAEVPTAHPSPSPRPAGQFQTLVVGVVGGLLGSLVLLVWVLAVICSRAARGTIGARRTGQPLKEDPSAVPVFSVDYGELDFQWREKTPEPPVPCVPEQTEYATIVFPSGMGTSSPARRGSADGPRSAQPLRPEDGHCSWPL
Put plainly: Jurkat-PD-1 Cell Binding High-Content Screening Assay (CBA); Jurkat hPD1-PDL1 assay. The note with it: Jurkat cell line over-expressing human PD-1; PE-labeled PD-L1-Ig 20 nM final; compound incubated 2 hours at 37° C.; read-out: Jurkat HPD1-PDL1 IC50. The method, boiled down: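 Cell binding by imaging: Jurkat line stably over-expressing human PD-1, compound pre-exposure 2 h at 37° C, PE-conjugated PD-L1-Ig 20 nM final, medium DMEM containing 10% FCS.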

As to `Cc1cccc(C[C@@H]2NC(=O)[C@H](CC(=O)O)NC(=O)[C@H](Cc3ccc(O)cc3)NC(=O)[C@H](Cc3ccccc3)NC(=O)CSC[C@@H](C(=O)N[C@@H](C)C(N)=O)NC(=O)[C@H](CO)NC(=O)[C@H](C(C)C)NC(=O)[C@H](CC(C)C)NC(=O)[C@H](CC(N)=O)NC(=O)CN(C)C(=O)[C@H](C)N(C)C(=O)[C@H](C(C)C)NC(=O)[C@H](Cc3ccc(-c4ccccc4)cc3)NC(=O)[C@H](CC(C)C)NC2=O)c1` [Example 1053] ({CH2CO}-FYD[Phe(3-Me)]L[Bip]V[NMeA][Sar]NLVSCA-NH2; thioether N-14), the IC50 is 120 nM.

As to `Cc1cccc(C[C@@H]2NC(=O)[C@H](CC(=O)O)NC(=O)[C@H](Cc3ccncc3)NC(=O)[C@H](CN)NC(=O)CSC[C@@H](C(=O)N[C@@H](C)C(N)=O)NC(=O)[C@H]([C@@H](C)O)NC(=O)[C@H](C(C)C)NC(=O)[C@H](CC3CCCCC3)NC(=O)[C@H](CCN)NC(=O)[C@H](Cc3ccccc3)N(C)C(=O)[C@H](CCCN)NC(=O)[C@H](CCC(=O)O)NC(=O)[C@H](Cc3ccc(-c4ccccc4)cc3)NC(=O)C(C(C)C)NC2=O)c1` (stereo partly drawn) [Example 1445] ({CH2CO}-[Dap][4Pal]D[Phe(3-Me)][ξV][Bip]E[Orn][NMeF][Dab][Cha]VTCA-NH2; thioether N-14), the IC50 amounted to 10 nM.

For `CC(C)C[C@@H]1NC(=O)[C@H](CCCCNC(=N)N)NC(=O)[C@H](Cc2ccccc2)N(C)C(=O)[C@H](C)N(C)C(=O)[C@H](CCCNC(=N)N)NC(=O)[C@H](Cc2ccc(-c3ccccc3)cc2)NC(=O)[C@H](C(C)C)NC(=O)[C@H](Cc2c[nH]c3ccccc23)NC(=O)[C@H](CC(=O)O)NC(=O)[C@H](Cc2ccc(O)cc2)NC(=O)[C@H](Cc2ccccc2)NC(=O)CSC[C@@H](C(=O)NCC(N)=O)NC(=O)[C@H](CO)NC(=O)[C@H](C(C)C)NC1=O` [Example 1279] ({CH2CO}-FYDWV[Bip]R[NMeA][NMeF][hArg]LVSCG-NH2; thioether N-14), the IC50 was 320 nM.

Take `CC(C)C[C@@H]1NC(=O)[C@H](Cc2c[nH]c3ccccc23)NC(=O)[C@H](CC(=O)O)NC(=O)[C@H](Cc2ccc(O)cc2)NC(=O)C(Cc2ccccc2)NC(=O)CSC[C@@H](C(=O)NCC(N)=O)NC(=O)[C@@H](CO)NC(=O)[C@H](C(C)C)NC(=O)[C@H](CC(C)C)NC(=O)[C@H](CC(N)=O)NC(=O)CN(C)C(=O)[C@H](C)N(C)C(=O)[C@H](C(C)C)NC(=O)[C@H](Cc2ccc(-c3ccccc3)cc2)NC1=O` (stereo partly drawn) [Example 1043] ({CH2CO}-[ξF]YDWL[Bip]V[NMeA][Sar]NLV[dS]CG-NH2; thioether N-14): the IC50 stood at 80 nM.

Consider `CC(C)C[C@@H]1NC(=O)[C@H](Cc2c[nH]c3ccccc23)NC(=O)[C@H](CC#N)NC(=O)[C@H](Cc2ccc(O)cc2)NC(=O)[C@H](Cc2ccccc2)NC(=O)CSC[C@@H](C(=O)N[C@@H](C)C(N)=O)NC(=O)[C@H](CO)NC(=O)[C@H](C(C)C)NC(=O)[C@H](CC(C)C)NC(=O)[C@H](CC(N)=O)NC(=O)[C@H]2CCCN2C(=O)[C@H](C)N(C)C(=O)[C@H](C(C)C)NC(=O)[C@H](Cc2ccc(-c3ccccc3)cc2)NC1=O` [Example 1429] ({CH2CO}-FY[Ala(CN)]WL[Bip]V[NMeA][dP]NLVSCA-NH2; thioether N-14), for which the IC50 amounted to 10 nM.

Regarding `CC(C)C[C@@H]1NC(=O)[C@H](Cc2c[nH]c3ccccc23)NC(=O)[C@H](CC(=O)O)NC(=O)[C@H](Cc2ccc(O)cc2)NC(=O)[C@H](Cc2ccccc2)NC(=O)CSC[C@@H](C(=O)N[C@@H](C)C(N)=O)NC(=O)[C@H](CCC(N)=O)NC(=O)[C@H](C(C)C)NC(=O)[C@H](CC(C)C)NC(=O)[C@H](CC(N)=O)NC(=O)CN(C)C(=O)[C@H](C)N(C)C(=O)[C@H](C(C)C)NC(=O)[C@H](Cc2ccc(-c3ccccc3)cc2)NC1=O` [Example 1136] ({CH2CO}-FYDWL[Bip]V[NMeA][Sar]NLVQCA-NH2; thioether N-14), the 50% inhibitory concentration (IC50) came to 560 nM.

`CC(C)C[C@@H]1NC(=O)[C@H](CCCNC(=N)N)NC(=O)[C@H](Cc2ccccc2)N(C)C(=O)[C@H](C)N(C)C(=O)[C@H](CCCNC(=N)N)NC(=O)[C@H](Cc2ccc(-c3ccccc3)cc2)NC(=O)[C@H](C(C)C)NC(=O)[C@H](Cc2c[nH]c3ccccc23)NC(=O)[C@H](CC(=O)O)NC(=O)[C@H](Cc2ccc(O)cc2)NC(=O)[C@H](Cc2cnc[nH]2)NC(=O)CSC[C@@H](C(=O)NCC(N)=O)NC(=O)[C@H](CO)NC(=O)[C@H](C(C)C)NC1=O` [Example 1058] ({CH2CO}-HYDWV[Bip]R[NMeA][NMeF]RLVSCG-NH2; thioether N-14): the IC50 is 130 nM.

For `CC(C)C[C@@H]1NC(=O)[C@H](Cc2c[nH]c3ccccc23)NC(=O)[C@H](CC(=O)O)NC(=O)[C@H](Cc2ccc(O)cc2)NC(=O)[C@H](Cc2ccccc2)NC(=O)CSC[C@@H](C(=O)N[C@@H](C)C(N)=O)NC(=O)[C@H](CO)NC(=O)[C@H](C(C)C)NC(=O)[C@H](CC(C)C)NC(=O)[C@H](CCCCN)NC(=O)[C@H]2CCCN2C(=O)[C@H](C)N(C)C(=O)[C@H](CCC(=O)O)NC(=O)[C@H](Cc2ccc(-c3ccccc3)cc2)NC1=O` [Example 1036] ({CH2CO}-FYDWL[Bip]E[NMeA][dP]KLVSCA-NH2; thioether N-14), the IC50 came out at 60 nM.

With `CC(C)C[C@@H]1NC(=O)[C@H](CCCNC(=N)N)NC(=O)[C@H](Cc2ccccc2)N(C)C(=O)[C@H](C)N(C)C(=O)[C@H](CCCNC(=N)N)NC(=O)[C@H](Cc2ccc(-c3ccccc3)cc2)NC(=O)[C@H](c2ccccc2)NC(=O)[C@H](Cc2c[nH]c3ccccc23)NC(=O)[C@H](CC(=O)O)NC(=O)[C@H](Cc2ccc(O)cc2)NC(=O)[C@H](Cc2ccccc2)NC(=O)CSC[C@@H](C(=O)NCC(N)=O)NC(=O)[C@H](CO)NC(=O)[C@H](C(C)C)NC1=O` [Example 1334] ({CH2CO}-FYDW[Phg][Bip]R[NMeA][NMeF]RLVSCG-NH2; thioether N-14), the IC50 came to 430 nM.

As for `CC(C)C[C@@H]1NC(=O)[C@H](Cc2c[nH]c3ccccc23)NC(=O)[C@H](CC(=O)O)NC(=O)[C@H](Cc2ccc(O)cc2)NC(=O)[C@H](Cc2ccccc2)NC(=O)CSC[C@@H](C(=O)N[C@@H](C)C(N)=O)NC(=O)[C@H]([C@@H](C)O)NC(=O)[C@H](C(C)C)NC(=O)[C@H](CC(C)C)NC(=O)[C@H](CC(N)=O)NC(=O)[C@H]2CCCN2C(=O)[C@H](CN)NC(=O)[C@H](C(C)C)NC(=O)[C@H](Cc2ccc(-c3ccccc3)cc2)NC1=O` [Example 1405] ({CH2CO}-FYDWL[Bip]V[Dap][dP]NLVTCA-NH2; thioether N-14), the IC50 was 660 nM.

Take `CC(C)C[C@@H]1NC(=O)[C@H](CCCNC(=N)N)NC(=O)[C@H](Cc2ccccc2)N(C)C(=O)[C@H]2CCCN2C(=O)[C@H](CCCNC(=N)N)NC(=O)[C@H](Cc2ccc(-c3ccccc3)cc2)NC(=O)[C@H](C(C)C)NC(=O)[C@H](Cc2c[nH]c3ccccc23)NC(=O)[C@H](CC(=O)O)NC(=O)[C@H](Cc2ccc(O)cc2)NC(=O)[C@H](CC(N)=O)NC(=O)CSC[C@@H](C(=O)N[C@@H](C)C(N)=O)NC(=O)[C@H]([C@@H](C)O)NC(=O)[C@H](C(C)C)NC1=O` [Example 1362] ({CH2CO}-NYDWV[Bip]R[dP][NMeF]RLVTCA-NH2; thioether N-14): the IC50 was 190 nM.

`CC(C)C[C@@H]1NC(=O)[C@H](CCCNC(=N)N)NC(=O)[C@H](Cc2ccccc2)N(C)C(=O)[C@H](C)N(C)C(=O)[C@H](CCCNC(=N)N)NC(=O)[C@H](Cc2ccc(-c3ccccc3)cc2)NC(=O)[C@H](C(C)C)NC(=O)[C@H](Cc2c[nH]c3ccccc23)NC(=O)[C@H](CC(=O)O)NC(=O)[C@H](Cc2ccc(O)cc2)NC(=O)[C@H](Cc2cnc[nH]2)NC(=O)CSC[C@@H](C(=O)NCC(N)=O)NC(=O)[C@H]([C@@H](C)O)NC(=O)[C@H](C(C)C)NC1=O` [Example 1317] ({CH2CO}-HYDWV[Bip]R[NMeA][NMeF]RLVTCG-NH2; thioether N-14): the IC50 was 60 nM.

In the case of `CC(C)C[C@@H]1NC(=O)CSC[C@@H](C(=O)NCC(N)=O)NC(=O)[C@H](CO)NC(=O)[C@H](C(C)C)NC(=O)[C@H](CC(C)C)NC(=O)[C@H](CCCNC(=N)N)NC(=O)[C@H](Cc2ccccc2)N(C)C(=O)[C@H](C)N(C)C(=O)[C@H](CCCN)NC(=O)[C@H](Cc2ccc(-c3ccccc3)cc2)NC(=O)[C@H](C(C)C)NC(=O)[C@H](Cc2c[nH]c3ccccc23)NC(=O)[C@H](CC(=O)O)NC(=O)[C@H](Cc2ccc(O)cc2)NC1=O` [Example 1290] ({CH2CO}-LYDWV[Bip][Orn][NMeA][NMeF]RLVSCG-NH2; thioether N-14), the IC50 is 140 nM.

Regarding `CC(C)C[C@@H]1NC(=O)[C@H](CCCNC(=N)N)NC(=O)[C@H](Cc2ccccc2)N(C)C(=O)[C@H](CN)NC(=O)[C@H](CCCNC(=N)N)NC(=O)[C@H](Cc2ccc(-c3ccccc3)cc2)NC(=O)[C@H](C(C)C)NC(=O)[C@H](Cc2c[nH]c3ccccc23)NC(=O)[C@H](CC(=O)O)NC(=O)[C@H](Cc2ccc(O)cc2)NC(=O)[C@H](CC(N)=O)NC(=O)CSC[C@@H](C(=O)N[C@@H](C)C(N)=O)NC(=O)[C@H]([C@@H](C)O)NC(=O)[C@H](C(C)C)NC1=O` [Example 1364] ({CH2CO}-NYDWV[Bip]R[Dap][NMeF]RLVTCA-NH2; thioether N-14), the IC50 was determined as 590 nM.

Regarding `CC(C)C[C@@H]1NC(=O)[C@H](Cc2c[nH]c3ccccc23)NC(=O)[C@H](CC(=O)O)NC(=O)[C@H](Cc2ccc(O)cc2)NC(=O)[C@H](Cc2ccccc2)NC(=O)CSC[C@@H](C(=O)N[C@@H](C)C(N)=O)NC(=O)[C@H](CO)NC(=O)[C@H](C(C)C)NC(=O)[C@H](CC(C)C)NC(=O)[C@H](CC(N)=O)NC(=O)[C@H]2CCCN2C(=O)[C@@H](CCCCN)NC(=O)[C@H](C(C)C)NC(=O)[C@H](Cc2ccc(-c3ccccc3)cc2)NC1=O` [Example 1197] ({CH2CO}-FYDWL[Bip]V[dK][dP]NLVSCA-NH2; thioether N-14), the IC50 is 420 nM.

The IC50 is the concentration that gives 50% inhibition.

The values are drawn from US20240360178A1, “MACROCYCLIC IMMUNOMODULATORS” (Bristol-Myers Squibb Company, priority 2021, published 2024).
